In patent US5116845A (priority 1990, dated 1992):

Legend:
[1] = Solubility; assay type: physicochemical
[2] = tested on: Gram-positive aerobic bacteria; assay type: cell-based
[3] = tested on: Gram-negative organisms; assay type: cell-based
[4] = tested on: P388 leukemia; assay: Antitumor activity against P388 leukemia (ip); assay type: in vivo, mice; details: maximum over the doses
[5] = tested on: mice; assay: Acute toxicity, intramuscular; assay type: in vivo; details: 5 mg/kg intramuscular
[6] = tested on: murine and human tumor cell lines; assay: In vitro cytotoxicity
[7] = tested on: P388/VCR; assay: In vitro cytotoxicity (viable cell count)
[8] = tested on: Moser and HCT-116 cells; details: versus murine B16-F10

Compound: COC1=C(C(=O)O)C(C)C23OC24c2cc(OC(C)=O)c5c(c2NC3C#C/C=C\C#CC14)C(=O)c1c(OC(C)=O)ccc(OC(C)=O)c1C5=O (centres unmarked) [BU-3420T acetate]
- solubility in organic solvents ([1]; chloroform, methanol and ethanol, compared with BU-3420T): much improved solubility
- activity against Gram-positive aerobic bacteria [2]: intensely potent activity
- susceptibility of Gram-negative organisms [3]: a little less susceptible
- maximum T/C [4]: 135%

Compound: COC1=C(C(=O)O)C(C)C23OC24c2cc(O)c5c(c2NC3C#CC=CC#CC14)C(=O)c1c(O)ccc(O)c1C5=O (centres unmarked) [BU-3420T]
- solubility ([1]; chloroform): slightly soluble
- solubility ([1]; dimethyl sulfoxide): soluble
- solubility ([1]; dimethylformamide): soluble
- solubility ([1]; dioxane): soluble
- solubility ([1]; ethanol): slightly soluble
- solubility ([1]; ethyl acetate): slightly soluble
- solubility ([1]; methanol): slightly soluble
- solubility ([1]; n-hexane): insoluble
- solubility ([1]; water): insoluble
- activity against Gram-positive aerobic bacteria [2]: intensely potent activity
- susceptibility of Gram-negative organisms [3]: a little less susceptible
- toxicity [5]: did not show any toxicity
- maximum T/C [4]: 135%
- cytotoxicity [6]: potent cytotoxicity
- cytotoxicity against VCR-resistant versus sensitive P388 cells [7]: same cytotoxicities

Compound: CO[C@@]12[C@H](COC(N)=O)C3=C(C(=O)C(C)=C(N)C3=O)N1C[C@@H]1N[C@@H]12 [Mitomycin C]
- resistance of Moser and HCT-116 relative to B16-F10 [8]: slightly more resistant
